From ChEMBL document CHEMBL1201862, “PubChem BioAssay data set” (2004)
Where a name gives a salt, the structure may show the parent alone. Each block holds one molecule with its values, some of them ahead of it. Active and inactive are the calls of the source.

Assays:
[1] = target: Sphingosine 1-phosphate receptor 5 (Homo sapiens, UniProt Q9H228); test: Late stage counterscreen assay for S1P4 antagonists: Fluorescence dose response cell-based screening assay for antagonists of the Sphingosine 1-Phosphate Receptor 5 (S1P5). [Related pubchem assays (depositor defined):AID1510, AID1524, AID1692, AID1853, AID2332, AID489009, AID489017]; assay type: functional
[2] = target: Sphingosine 1-phosphate receptor 3 (Homo sapiens, UniProt Q99500); test: Late stage counterscreen assay for S1P4 antagonists: Fluorescence dose response cell-based screening assay for antagonists of the Sphingosine 1-Phosphate Receptor 3 (S1P3). [Related pubchem assays (depositor defined):AID1510, AID1524, AID1692, AID1853, AID2332, AID489009, AID489017]; assay type: functional
[3] = target: Sphingosine 1-phosphate receptor 1 (Homo sapiens, UniProt P21453); test: Late stage counterscreen assay for S1P4 antagonists: Fluorescence dose response cell-based screening assay for antagonists of the Sphingosine 1-Phosphate Receptor 1 (S1P1). [Related pubchem assays (depositor defined):AID1510, AID1524, AID1692, AID1853, AID2332, AID489009, AID489017]; assay type: functional
[4] = target: Sphingosine 1-phosphate receptor 2 (Homo sapiens, UniProt O95136); test: Late stage counterscreen assay for S1P4 antagonists: Fluorescence dose response cell-based screening assay for antagonists of the Sphingosine 1-Phosphate Receptor 2 (S1P2). [Related pubchem assays (depositor defined):AID1510, AID1524, AID1692, AID1853, AID2332, AID489009, AID489017]; assay type: functional
SUMO E1/E2 = SUMO E1/E2 (Homo sapiens, UniProt P63279+Q9UBE0+Q9UBT2); test: SAR analysis of SUMOylation using HTRF in an in-Vitro dose response assay. [Related pubchem assays (depositor defined):AID2006, AID2011, AID2018, AID2069, AID2658]; assay type: functional
[5] = target: T1, Voltage-gated N-type calcium channel alpha-1B subunit/Amyloid beta A4 precursor protein-binding family A member 1 (Homo sapiens, UniProt Q00975+Q02410); test: disruptors of Mint-PDZ/N-type channel peptide interaction – biochemical, HTRF, set 2, SAR follow-up (AID 434980); assay type: functional
[6] = target: T1, Voltage-gated N-type calcium channel alpha-1B subunit/Amyloid beta A4 precursor protein-binding family A member 1; test: disruptors of Mint-PDZ/N-type channel peptide interaction – biochemical, HTRF, SAR follow-up (AID 2489); assay type: functional
Bcl-2-related protein A1 = target: T2, Bcl-2-related protein A1 (Mus musculus, UniProt Q07440); assay type: functional;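 also: confirmatory dose–response counterscreen on Bfl-1, used to check hits from a UBC13 polyubiquitin inhibitor campaign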
T2 sequence (Q07440 whole entry): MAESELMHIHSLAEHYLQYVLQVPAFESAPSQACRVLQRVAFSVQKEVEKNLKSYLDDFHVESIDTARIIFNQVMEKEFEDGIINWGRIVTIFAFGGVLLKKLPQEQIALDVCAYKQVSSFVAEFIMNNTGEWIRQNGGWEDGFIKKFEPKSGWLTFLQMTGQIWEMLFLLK

[7] = target: T3, Ubiquitin-conjugating enzyme E2 N (Homo sapiens, UniProt P61088); assay type: functional
T3 sequence (P61088 whole entry): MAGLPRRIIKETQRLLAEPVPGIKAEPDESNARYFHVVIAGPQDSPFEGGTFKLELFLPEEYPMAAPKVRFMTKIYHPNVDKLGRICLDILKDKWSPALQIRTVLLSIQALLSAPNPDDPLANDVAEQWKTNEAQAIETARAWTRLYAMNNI

[8] = target: T3, Ubiquitin-conjugating enzyme E2 N; assay type: functional; remark: listed apart in the source
Paired box protein Pax-8 = Paired box protein Pax-8 (Homo sapiens, UniProt Q06710); test: PAX8 transcriptional activity inhibition in RMG-I – RMG-I cells, luciferase, cherry-pick, dose response (AID 687027); assay type: functional, cell-based;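 also: luciferase reporter driven by Pax8 target thyroperoxidase promoter measured by SteadyGlo luminescence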
HEK293 [9] = test: cells; details: Homo sapiens
HEK293 [10] = test: cells; details: Homo sapiens; remark: listed apart in the source
[11] = target: Voltage-dependent T-type calcium channel subunit alpha-1H (Homo sapiens, UniProt O95180); test: human CACNA1H calcium influx blockade – cell-based, synthetic library set 2, HEK293 HH8, Fluo-4, SAR follow-up (AID 493023); assay type: functional
Cytochrome P450 2D6 = Cytochrome P450 2D6 (Homo sapiens, UniProt P10635);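 also: CYP2D6 member of a cytochrome P450 panel assay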
Cytochrome P450 2C9 = Cytochrome P450 2C9 (Homo sapiens, UniProt P11712)
[12] = Luminescence Cell-Based Dose Retest to Confirm Inhibitors of Cancer Stem Cells. [Related pubchem assays (depositor defined):AID2717, AID2721]; assay type: functional; details: Homo sapiens
[13] = target: DNA damage-inducible transcript 3 protein (Mus musculus, UniProt P35639); assay type: functional, Cricetulus griseus
INS1 = test: INS-1E survival protection against cytokine death – cell-based, luminescence, retest, dose response (AID 449756); assay type: functional; details: Rattus norvegicus;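 also: cell death triggered by IL-1 beta plus TNF-alpha plus IFN-gamma mixture; protective hits raise ATP signal compared with cytokine alone wells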

T1 sequence (Q00975 whole entry): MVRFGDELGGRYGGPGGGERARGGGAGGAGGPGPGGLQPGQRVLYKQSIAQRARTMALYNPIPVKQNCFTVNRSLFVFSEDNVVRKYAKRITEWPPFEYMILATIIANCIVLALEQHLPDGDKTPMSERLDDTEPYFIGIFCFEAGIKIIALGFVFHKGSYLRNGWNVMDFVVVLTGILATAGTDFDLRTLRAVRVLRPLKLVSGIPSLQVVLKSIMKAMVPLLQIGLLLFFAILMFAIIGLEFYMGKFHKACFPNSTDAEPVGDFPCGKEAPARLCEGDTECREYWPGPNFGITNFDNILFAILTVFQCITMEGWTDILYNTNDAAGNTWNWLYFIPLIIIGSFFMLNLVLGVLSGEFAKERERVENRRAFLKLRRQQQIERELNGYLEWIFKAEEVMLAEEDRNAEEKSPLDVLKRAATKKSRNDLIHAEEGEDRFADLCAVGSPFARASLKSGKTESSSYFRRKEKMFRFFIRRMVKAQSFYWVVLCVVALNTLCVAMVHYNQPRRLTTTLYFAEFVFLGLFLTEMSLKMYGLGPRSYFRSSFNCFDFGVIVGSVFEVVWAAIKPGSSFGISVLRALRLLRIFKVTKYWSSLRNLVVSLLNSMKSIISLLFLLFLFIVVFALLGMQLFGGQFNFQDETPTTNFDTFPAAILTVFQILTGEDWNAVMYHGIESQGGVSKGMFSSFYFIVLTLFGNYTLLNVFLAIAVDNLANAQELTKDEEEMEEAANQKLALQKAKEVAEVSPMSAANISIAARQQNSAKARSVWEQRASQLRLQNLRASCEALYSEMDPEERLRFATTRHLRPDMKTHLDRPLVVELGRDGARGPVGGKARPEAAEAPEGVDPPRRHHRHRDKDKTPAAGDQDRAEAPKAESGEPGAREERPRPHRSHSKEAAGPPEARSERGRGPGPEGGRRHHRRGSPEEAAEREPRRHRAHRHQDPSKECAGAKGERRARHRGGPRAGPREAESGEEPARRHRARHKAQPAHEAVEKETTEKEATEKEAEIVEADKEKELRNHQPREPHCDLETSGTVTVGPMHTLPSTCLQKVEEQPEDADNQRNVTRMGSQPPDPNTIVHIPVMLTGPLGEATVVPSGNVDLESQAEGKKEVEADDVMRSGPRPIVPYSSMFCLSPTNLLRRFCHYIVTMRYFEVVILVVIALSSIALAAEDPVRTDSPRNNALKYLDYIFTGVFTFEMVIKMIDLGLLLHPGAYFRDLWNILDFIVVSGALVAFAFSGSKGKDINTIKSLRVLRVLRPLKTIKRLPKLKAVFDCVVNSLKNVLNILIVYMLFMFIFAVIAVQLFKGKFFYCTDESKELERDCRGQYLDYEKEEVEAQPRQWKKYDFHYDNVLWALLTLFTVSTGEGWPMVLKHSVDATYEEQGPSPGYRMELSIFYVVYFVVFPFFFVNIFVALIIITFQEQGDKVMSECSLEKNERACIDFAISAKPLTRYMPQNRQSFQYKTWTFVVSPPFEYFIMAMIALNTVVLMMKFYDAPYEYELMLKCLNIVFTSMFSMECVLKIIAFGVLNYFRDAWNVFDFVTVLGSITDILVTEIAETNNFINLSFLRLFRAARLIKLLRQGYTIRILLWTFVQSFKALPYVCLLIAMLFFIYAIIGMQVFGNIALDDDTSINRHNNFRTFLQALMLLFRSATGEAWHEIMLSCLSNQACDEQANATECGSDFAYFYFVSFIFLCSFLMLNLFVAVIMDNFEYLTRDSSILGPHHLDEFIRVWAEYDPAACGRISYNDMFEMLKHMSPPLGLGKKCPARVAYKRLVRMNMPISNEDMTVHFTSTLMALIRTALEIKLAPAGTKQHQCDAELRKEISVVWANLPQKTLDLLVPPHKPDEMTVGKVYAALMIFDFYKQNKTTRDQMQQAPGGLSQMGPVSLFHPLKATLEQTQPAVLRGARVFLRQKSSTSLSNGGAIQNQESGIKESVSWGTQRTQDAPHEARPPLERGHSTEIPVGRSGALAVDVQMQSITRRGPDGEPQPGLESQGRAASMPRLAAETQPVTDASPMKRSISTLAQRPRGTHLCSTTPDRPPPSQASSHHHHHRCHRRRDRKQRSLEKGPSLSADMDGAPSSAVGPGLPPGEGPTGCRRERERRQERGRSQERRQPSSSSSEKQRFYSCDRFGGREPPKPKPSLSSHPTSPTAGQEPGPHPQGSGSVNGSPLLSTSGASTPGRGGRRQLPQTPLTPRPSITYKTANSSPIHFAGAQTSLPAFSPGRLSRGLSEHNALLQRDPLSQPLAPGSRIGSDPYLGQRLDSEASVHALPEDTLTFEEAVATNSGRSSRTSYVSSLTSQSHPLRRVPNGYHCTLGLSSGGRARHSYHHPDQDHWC
T1 sequence (Q02410 whole entry): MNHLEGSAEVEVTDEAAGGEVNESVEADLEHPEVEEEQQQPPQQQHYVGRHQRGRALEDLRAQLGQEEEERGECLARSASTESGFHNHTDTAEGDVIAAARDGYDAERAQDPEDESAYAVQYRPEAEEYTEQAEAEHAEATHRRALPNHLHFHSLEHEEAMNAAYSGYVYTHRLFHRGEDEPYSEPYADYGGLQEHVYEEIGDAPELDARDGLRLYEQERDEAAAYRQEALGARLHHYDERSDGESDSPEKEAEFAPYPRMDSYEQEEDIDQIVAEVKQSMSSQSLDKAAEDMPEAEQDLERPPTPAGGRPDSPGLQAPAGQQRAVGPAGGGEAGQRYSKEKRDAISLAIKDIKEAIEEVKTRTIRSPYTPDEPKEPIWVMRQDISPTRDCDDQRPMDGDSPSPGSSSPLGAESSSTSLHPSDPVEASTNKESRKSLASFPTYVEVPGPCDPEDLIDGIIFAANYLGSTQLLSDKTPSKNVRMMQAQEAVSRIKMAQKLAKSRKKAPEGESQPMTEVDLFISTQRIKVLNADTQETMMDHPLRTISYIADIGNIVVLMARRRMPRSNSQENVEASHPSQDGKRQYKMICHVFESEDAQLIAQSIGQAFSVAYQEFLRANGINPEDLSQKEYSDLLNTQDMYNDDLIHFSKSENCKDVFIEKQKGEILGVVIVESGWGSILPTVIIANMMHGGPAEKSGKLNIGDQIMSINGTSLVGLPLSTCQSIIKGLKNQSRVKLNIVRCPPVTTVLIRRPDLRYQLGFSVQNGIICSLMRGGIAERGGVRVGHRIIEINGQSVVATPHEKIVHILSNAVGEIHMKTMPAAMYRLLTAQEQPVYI
Sequence of Cytochrome P450 2C9 (P11712 whole entry): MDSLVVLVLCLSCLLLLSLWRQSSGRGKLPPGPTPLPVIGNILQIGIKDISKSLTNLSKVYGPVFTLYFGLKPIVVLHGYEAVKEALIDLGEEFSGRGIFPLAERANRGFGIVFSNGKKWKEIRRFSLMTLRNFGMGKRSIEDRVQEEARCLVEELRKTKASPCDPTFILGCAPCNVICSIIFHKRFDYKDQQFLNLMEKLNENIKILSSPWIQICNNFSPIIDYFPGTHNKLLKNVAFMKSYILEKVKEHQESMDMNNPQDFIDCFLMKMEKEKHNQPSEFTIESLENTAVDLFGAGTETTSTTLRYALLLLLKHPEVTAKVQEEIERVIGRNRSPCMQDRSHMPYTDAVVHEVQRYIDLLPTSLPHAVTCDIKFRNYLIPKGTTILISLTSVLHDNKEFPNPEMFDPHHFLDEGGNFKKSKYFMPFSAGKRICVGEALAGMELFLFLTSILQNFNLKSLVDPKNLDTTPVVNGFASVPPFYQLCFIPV
Sequence of Sphingosine 1-phosphate receptor 1 (P21453 whole entry): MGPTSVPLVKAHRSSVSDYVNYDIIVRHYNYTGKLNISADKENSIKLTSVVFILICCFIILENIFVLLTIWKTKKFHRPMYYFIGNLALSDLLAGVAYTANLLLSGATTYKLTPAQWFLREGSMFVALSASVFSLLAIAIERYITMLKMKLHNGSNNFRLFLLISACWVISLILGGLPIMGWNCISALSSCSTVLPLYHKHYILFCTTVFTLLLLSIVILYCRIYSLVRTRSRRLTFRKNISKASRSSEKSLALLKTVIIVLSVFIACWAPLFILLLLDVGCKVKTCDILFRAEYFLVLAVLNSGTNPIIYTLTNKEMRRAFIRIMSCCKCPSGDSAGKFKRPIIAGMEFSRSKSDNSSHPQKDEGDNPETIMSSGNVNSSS
Sequence of DNA damage-inducible transcript 3 protein (P35639 whole entry): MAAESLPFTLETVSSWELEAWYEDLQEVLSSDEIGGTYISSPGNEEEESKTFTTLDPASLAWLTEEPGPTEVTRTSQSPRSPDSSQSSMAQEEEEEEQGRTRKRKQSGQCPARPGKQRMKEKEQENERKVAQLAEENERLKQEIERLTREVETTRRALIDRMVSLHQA
Sequence of Sphingosine 1-phosphate receptor 3 (Q99500 whole entry): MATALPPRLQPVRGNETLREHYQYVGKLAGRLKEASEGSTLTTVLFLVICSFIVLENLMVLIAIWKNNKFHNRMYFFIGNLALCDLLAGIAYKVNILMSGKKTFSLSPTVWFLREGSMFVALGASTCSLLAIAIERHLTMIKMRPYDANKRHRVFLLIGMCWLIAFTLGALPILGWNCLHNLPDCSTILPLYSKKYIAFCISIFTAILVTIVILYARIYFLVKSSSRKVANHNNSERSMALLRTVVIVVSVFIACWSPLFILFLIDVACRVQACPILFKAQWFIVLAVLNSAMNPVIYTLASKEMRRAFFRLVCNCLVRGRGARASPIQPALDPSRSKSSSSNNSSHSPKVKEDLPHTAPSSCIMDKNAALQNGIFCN
Sequence of Sphingosine 1-phosphate receptor 2 (O95136 whole entry): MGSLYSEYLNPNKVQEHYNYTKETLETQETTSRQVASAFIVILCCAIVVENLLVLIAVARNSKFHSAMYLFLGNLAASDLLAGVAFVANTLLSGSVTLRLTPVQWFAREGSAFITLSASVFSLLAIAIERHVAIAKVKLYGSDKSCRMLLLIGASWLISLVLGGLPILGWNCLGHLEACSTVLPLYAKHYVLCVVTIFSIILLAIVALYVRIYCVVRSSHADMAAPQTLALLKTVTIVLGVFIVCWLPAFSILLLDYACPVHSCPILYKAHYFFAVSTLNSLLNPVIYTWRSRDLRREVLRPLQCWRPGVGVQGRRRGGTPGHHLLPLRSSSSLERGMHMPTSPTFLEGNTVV

IC50 [1]: 12.7 µM (inactive)
IC50 [2]: > 25 µM (inactive)
IC50 [3]: > 25 µM (inactive)
IC50 [4]: > 25 µM (inactive)
SMILES: CC(C)c1cccc(C(C)C)c1NC(=O)c1ccc(-c2cc(Cl)ccc2Cl)o1

IC50 (SUMO E1/E2): 4.07 µM (active)
IC50 [5]: > 56.8 µM (inactive)
IC50 [6]: > 56.8 µM (inactive)
SMILES: O=C(COC(=O)c1cc(-c2ccco2)nc2ccccc12)NCc1ccccc1

IC50 (Bcl-2-related protein A1): > 20 µM (inactive)
IC50 [7]: 7.51 µM (active)
IC50 [8]: 7.05 µM (active)
SMILES: O=C(NCCCN1CCN(c2ccccc2)CC1)C1CCCN(c2ncnc3c2nc2n3CCCCC2)C1 (stereo not drawn)

SMILES: CCOC(=O)c1c(-c2ccc(F)cc2)csc1NC(=O)CN1C(=O)NC2(CCCCC2C)C1=O (stereo not drawn)
AC50 (Paired box protein Pax-8): 4.11 µM (active)
EC50 (HEK293 [9]): > 59.6 µM (inactive)
EC50 (HEK293 [10]): > 59.6 µM (inactive)

EC50 [11]: 10 µM (active)
SMILES: CC(C)(C)CCN1CCC[C@H](NC(=O)COc2ccc(F)c(Cl)c2)C1

EC50 [11]: 4 µM (active)
SMILES: O=C(NC1CCC2CN(Cc3ccccc3)CC21)c1cc(Cl)cc(Cl)c1 (stereo not drawn)

AC50 (Cytochrome P450 2D6): inconclusive
AC50 (Cytochrome P450 2C9): inconclusive
SMILES: Cn1c(SCC(=O)N/N=C/C=C\c2ccco2)nc2ccccc21

SMILES: COc1ccc(-c2nn(-c3ccccc3)cc2/C=N/N2C(=O)CSC2=S)cc1
AC50 [12]: 2.08 µM (active)
Absolute IC50 (CHOP) [13]: 10 µM
AC50 (INS1): 4.38 µM (active)

SMILES: NCCCNCCCCNCCCN [SPERMINE TETRAHYDROCHLORIDE]
IC50 (Bcl-2-related protein A1): > 20 µM (inactive)
IC50 [7]: 14.3 µM (active)
IC50 [8]: 15.6 µM (active)
